{"source": "patent US8012748B2", "about": "“Peripheral nervous system specific sodium channel nucleic acids” (The Research Foundation of State University of New York, priority 1994, dated 2011)", "key": {"[1]": {"target": "DRG sodium channel", "conditions": "cited from earlier work"}, "[2]": {"target": "T1, PNS SCP (PN1 sodium channel) in PK1-4 cells (Rattus norvegicus, UniProt O08562)", "T1 construct": "PKI-4 cells express a PNS SCP(PN1) without NGF treatment; endogenous in cells", "T1 sequence (O08562 whole entry)": "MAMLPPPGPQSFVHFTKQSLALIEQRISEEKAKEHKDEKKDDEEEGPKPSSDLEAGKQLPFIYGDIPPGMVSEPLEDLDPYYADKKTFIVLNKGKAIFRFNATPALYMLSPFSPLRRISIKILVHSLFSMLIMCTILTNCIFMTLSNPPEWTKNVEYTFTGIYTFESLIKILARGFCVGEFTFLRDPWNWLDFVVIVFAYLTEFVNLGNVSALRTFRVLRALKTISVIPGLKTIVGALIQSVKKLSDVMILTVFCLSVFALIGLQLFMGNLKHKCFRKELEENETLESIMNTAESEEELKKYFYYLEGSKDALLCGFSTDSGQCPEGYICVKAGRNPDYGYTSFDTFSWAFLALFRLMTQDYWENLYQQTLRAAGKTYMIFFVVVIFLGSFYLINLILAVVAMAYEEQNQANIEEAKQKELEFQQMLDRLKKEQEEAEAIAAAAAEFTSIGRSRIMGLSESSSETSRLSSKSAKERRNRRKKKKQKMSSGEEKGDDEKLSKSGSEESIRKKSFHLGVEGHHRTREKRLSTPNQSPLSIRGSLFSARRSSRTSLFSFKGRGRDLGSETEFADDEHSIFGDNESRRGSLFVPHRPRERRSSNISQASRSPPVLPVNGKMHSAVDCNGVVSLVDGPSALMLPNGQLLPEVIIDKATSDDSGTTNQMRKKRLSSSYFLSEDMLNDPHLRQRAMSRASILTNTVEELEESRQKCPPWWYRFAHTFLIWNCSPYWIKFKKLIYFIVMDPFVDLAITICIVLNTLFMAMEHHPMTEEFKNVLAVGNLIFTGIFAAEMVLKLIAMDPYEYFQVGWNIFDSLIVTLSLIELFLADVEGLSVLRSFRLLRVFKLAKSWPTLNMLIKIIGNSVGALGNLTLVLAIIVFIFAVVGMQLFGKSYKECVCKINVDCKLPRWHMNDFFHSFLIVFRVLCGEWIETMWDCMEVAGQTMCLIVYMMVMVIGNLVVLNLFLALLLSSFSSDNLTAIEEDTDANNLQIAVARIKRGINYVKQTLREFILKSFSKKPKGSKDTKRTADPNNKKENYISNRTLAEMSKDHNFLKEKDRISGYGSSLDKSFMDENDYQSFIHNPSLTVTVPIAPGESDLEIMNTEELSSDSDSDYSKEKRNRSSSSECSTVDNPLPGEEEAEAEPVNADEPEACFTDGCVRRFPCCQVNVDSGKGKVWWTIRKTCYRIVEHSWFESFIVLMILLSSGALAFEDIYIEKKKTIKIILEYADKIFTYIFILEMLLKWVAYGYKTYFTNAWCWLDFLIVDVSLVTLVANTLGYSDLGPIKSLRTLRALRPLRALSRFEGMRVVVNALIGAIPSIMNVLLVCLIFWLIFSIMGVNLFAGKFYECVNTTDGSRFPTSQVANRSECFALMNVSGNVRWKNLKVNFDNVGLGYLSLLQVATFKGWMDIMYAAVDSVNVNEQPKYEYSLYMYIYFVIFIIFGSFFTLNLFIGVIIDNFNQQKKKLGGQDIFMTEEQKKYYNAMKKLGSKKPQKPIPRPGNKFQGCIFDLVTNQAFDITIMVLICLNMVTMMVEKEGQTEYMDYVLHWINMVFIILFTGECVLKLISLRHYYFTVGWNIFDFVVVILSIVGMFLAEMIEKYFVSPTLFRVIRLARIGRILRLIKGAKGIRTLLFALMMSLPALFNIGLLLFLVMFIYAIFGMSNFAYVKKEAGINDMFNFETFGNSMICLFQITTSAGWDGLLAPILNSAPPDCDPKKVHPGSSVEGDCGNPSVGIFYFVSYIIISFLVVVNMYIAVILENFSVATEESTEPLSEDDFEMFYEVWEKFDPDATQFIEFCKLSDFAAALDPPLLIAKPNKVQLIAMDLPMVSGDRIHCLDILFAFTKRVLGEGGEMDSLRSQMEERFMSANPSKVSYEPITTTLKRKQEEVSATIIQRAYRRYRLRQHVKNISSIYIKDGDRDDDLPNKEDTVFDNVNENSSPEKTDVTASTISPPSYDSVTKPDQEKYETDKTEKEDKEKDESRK", "assay": "(14C) guanidinium flux assay in cells expressing a PNS SCP", "format": "cell-based"}}}
{"smiles": "NC1=N[C@H](O)[C@H]2[C@H]3O[C@]4(O)O[C@@H]([C@@H](O)[C@@]2(N1)[C@@H]4O)[C@]3(O)CO", "note": "[TTX, tetrodotoxin]", "values": [{"measurement": "kD for TTX of the DRG channel relative to the kD of sodium channels in skeletal muscle or heart", "setting": "[1]", "value": "approximately tenfold higher"}]}
{"smiles": "Cc1cccc(C)c1NC(=O)CN1CCN(CCCC(c2ccc(F)cc2)c2ccc(F)cc2)CC1", "note": "[lidoflazine]", "values": [{"measurement": "inhibition of sodium channel activity of at least one PNS SCP", "setting": "[2]; cell lines expressing at least one PNS SCP (PC12, PK1-4 and other isolated or recombinant cells)", "value": "found to inhibit sodium channel activity"}, {"measurement": "IC50", "setting": "[2]; guanidinium flux assay, PK1-4 cells, read-out: for inhibition of sodium channel activity (converted)", "value": 309, "unit": "nM"}]}
